Test results reported in ChEMBL document CHEMBL1201862, “PubChem BioAssay data set” (2004).
Active and inactive are the calls of the source. Cut-off read from the data, not from the text of the source, for most assays here: actives have a measured EC50 and inactives only a lower limit.

Experiments:
[1] = target: T1, Heat shock factor protein 1 (Mus musculus, UniProt P38532); experiment: inhibition of MG132-induced HSE-luciferase signal, confirmation, cell-based, NIH3T3, luminescence, dose retest (AID 2382); format: functional;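 note: NIH3T3 fibroblasts with HSF1-driven luciferase reporter stressed by proteasome inhibitor MG132; luminescence from HSF1-driven luciferase expression after 8 hours of MG132 stress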
T1 sequence (P38532 whole entry): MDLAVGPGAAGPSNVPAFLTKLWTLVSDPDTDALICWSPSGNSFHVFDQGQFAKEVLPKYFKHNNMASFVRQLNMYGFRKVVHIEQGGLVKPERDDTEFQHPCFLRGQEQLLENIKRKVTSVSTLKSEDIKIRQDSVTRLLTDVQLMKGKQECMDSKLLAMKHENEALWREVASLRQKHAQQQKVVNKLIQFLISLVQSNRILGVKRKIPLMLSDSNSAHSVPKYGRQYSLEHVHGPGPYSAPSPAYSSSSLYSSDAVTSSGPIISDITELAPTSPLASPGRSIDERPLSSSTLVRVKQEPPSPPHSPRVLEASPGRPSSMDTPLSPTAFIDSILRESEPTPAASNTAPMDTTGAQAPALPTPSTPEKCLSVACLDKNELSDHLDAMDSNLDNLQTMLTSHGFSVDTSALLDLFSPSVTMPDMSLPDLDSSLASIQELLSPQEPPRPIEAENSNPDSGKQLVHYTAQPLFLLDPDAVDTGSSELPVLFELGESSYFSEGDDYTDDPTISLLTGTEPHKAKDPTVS

[2] = target: T2, Rac GTPase-activating protein 1 (Homo sapiens, UniProt Q9H0H5); experiment: MgcRacGAP GTPase-activating activity inhibitors, confirmation, biochemical, ADP Hunter fluorescence, primary and confirmatory (AID 624330); format: functional
T2 sequence (Q9H0H5 whole entry): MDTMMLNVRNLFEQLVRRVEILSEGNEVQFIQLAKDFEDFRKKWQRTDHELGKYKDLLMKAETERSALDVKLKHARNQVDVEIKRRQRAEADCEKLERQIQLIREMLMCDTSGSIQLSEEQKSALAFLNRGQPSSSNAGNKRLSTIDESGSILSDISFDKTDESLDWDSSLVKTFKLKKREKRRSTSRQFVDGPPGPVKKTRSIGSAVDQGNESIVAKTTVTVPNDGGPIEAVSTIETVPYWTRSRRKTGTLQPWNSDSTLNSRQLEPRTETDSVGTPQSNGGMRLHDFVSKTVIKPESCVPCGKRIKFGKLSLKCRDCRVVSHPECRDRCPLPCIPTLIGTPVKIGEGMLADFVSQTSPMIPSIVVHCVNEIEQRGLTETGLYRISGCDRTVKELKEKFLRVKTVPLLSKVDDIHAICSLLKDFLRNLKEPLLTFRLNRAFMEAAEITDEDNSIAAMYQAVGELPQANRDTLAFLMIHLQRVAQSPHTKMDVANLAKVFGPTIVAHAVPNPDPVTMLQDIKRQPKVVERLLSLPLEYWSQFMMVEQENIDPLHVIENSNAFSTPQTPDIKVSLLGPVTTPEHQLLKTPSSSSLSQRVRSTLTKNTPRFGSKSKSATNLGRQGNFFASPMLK

[3] = target: FAD-linked sulfhydryl oxidase ALR (Homo sapiens, UniProt P55789); experiment: inhibitors of human ALR sulfhydryl oxidase, dose response, biochemical, H2O2 detection, luminescence, cherry-pick (AID 493248)
[4] = target: T3, Corticotropin-releasing factor receptor 2/Corticotropin-releasing factor-binding protein (Homo sapiens, UniProt P24387+Q13324); experiment: Dose Response confirmation of uHTS hits for small molecule antagonists of the CRF-binding protein and CRF-R2 receptor complex.; format: functional; settings: read-out: IC50_Mean
T3 sequence (Q13324 whole entry): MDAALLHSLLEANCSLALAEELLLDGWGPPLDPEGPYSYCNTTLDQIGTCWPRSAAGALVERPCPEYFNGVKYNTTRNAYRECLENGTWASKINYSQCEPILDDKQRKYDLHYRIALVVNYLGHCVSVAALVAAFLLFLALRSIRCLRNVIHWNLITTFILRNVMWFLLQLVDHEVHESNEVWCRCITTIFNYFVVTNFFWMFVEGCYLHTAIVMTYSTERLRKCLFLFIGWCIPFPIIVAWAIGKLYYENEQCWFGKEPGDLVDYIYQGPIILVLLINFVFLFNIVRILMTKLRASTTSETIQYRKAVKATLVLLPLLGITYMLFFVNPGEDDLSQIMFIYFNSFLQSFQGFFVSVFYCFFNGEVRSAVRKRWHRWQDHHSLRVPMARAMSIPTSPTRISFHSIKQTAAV
T3 sequence (P24387 whole entry): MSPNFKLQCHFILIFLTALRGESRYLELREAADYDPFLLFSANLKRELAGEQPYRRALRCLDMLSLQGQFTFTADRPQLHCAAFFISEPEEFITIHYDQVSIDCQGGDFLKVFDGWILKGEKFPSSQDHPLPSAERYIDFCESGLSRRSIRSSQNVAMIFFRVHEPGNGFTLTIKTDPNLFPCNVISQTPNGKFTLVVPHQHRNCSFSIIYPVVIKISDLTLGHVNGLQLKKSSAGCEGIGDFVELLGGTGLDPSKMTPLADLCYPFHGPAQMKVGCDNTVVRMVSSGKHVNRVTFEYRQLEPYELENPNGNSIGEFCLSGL

[5] = target: T3, Corticotropin-releasing factor receptor 2/Corticotropin-releasing factor-binding protein; experiment: activators of CRF receptor 2 with binding protein – uHTS hits, confirmation (AID 602473); format: functional; settings: read-out: EC50_Mean
[6] = inhibitors of firefly luciferase expression or activity, dose response, H4 neuroglioma cells, luminescence (AID 1990); format: functional, cell-based
[7] = inhibitors of SNCA 5'UTR-driven reporter translation, confirmation, H4 neuroglioma cells, luminescence (AID 1988); format: functional, cell-based
[8] = Luminescence Cell-Based Dose Response HTS to Identify Inhibitors of 5'UTR Stem-Loop Driven Prion Protein mRNA Translation in H4 Neuroglioblastoma Cells. [Related pubchem assays: 1827 (Project Summary), 1813 (Primary HTS)]; format: functional
[9] = test system: H4; experiment: Luminescence Cell-Based Dose Response HTS to Identify Activators of 5'UTR Stem-Loop Driven Prion Protein mRNA Translation in H4 Neuroglioblastoma Cells. [Related pubchem assays: 1829 (Project Summary), 1814 (Primary HTS)]; format: functional; settings: Homo sapiens
[10] = HEp-2 cell cytotoxicity, dose response, cytotoxicity control for RSV inhibitor project, HTS (AID 2410); format: functional; settings: human respiratory syncytial virus
[11] = Luminescence Cell-Based Dose Retest to Confirm Inhibitors of Cancer Stem Cells. [Related pubchem assays (depositor defined):AID2717, AID2721]; format: functional; settings: Homo sapiens
[12] = inhibitors of intracellular T. cruzi replication, confirmation, NIH3T3 host cells, beta-gal luminescence (AID 2044); format: functional, cell-based;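 note: intracellular parasites grown in NIH/3T3 mouse fibroblasts as host cells; luminescent beta-galactosidase reporter signal from transgenic T. cruzi replicating inside host cells; inhibitors lower the luminescence signal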
[13] = cytotoxicity toward NIH3T3 fibroblasts, dose response, counter-screen, cell-based, ATP luminescence, mouse fibroblasts (AID 2010); format: functional;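 note: cells exposed to compound for about 90 hours before reading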
[14] = target: Cytochrome P450 2C9 (Homo sapiens, UniProt P11712)
[15] = Luminescence Cell-Based Dose Response HTS to Identify Activators of Luciferase Translation or Activity in H4 […] Cells. [Related pubchem assays: 1829 (Project Summary), 1814 (Primary HTS)]; format: functional

Chain of FAD-linked sulfhydryl oxidase ALR (P55789 whole entry): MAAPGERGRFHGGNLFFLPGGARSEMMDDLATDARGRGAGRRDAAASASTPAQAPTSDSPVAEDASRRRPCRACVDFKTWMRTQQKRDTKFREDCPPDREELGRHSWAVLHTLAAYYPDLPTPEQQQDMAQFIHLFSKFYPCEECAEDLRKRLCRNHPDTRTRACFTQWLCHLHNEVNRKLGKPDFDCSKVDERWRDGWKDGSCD
Chain of Cytochrome P450 2C9 (P11712 whole entry): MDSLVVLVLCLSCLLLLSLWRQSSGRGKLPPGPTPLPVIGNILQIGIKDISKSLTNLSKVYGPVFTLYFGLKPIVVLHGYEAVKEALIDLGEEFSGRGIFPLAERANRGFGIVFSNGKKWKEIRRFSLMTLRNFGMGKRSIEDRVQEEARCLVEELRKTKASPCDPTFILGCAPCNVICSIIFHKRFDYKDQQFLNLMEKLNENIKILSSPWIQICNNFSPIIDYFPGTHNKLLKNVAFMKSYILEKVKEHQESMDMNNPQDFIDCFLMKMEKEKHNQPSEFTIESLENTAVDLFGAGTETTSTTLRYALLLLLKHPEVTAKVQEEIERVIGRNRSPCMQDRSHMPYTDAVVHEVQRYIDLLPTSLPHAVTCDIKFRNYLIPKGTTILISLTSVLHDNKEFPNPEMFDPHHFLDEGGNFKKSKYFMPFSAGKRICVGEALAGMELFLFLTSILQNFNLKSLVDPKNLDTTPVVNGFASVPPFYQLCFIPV

## Cc1nc2sccn2c(=O)c1S(=O)(=O)Nc1ccc(N2CCOCC2)c(Cl)c1
[1]
  EC50: 92.2 µM (active)

## O=C(Cc1coc2cc(O)ccc12)N1CCN(S(=O)(=O)c2ccc(Br)cc2)CC1
[2]
  IC50: 21.6 µM (active)

## Nc1[nH]cnc2nc(SCCOc3ccc(Cl)cc3)nc1-2
[1]
  EC50: > 195 µM (not active)

## COc1ccc(C2SCC(=O)N2c2ccc(F)cc2)cc1 (stereo unspecified)
[3]
  AC50: 0.049 µM (active)

## CN(C)c1cccc(C(=O)NC2CCCCCC2)c1
[3]
  AC50: 8.08 µM (active)

## Cc1ccc(OCCC(=O)O)cc1
[4]
  IC50: > 47.1 µM (inactive)
[5]
  EC50: > 53 µM (inactive)

## CCOC(=O)c1c(CN(C)C)n(C)c2ccc(OC(C)=O)cc12
[1]
  EC50: > 195 µM (not active)

## CC1Oc2ccccc2N(CC(=O)NCc2ccccc2)C1=O (stereo unspecified)
[1]
  EC50: > 195 µM (not active)

## CCc1ccc(/C=N/NC(=O)c2cc(C3CC3)nc3ccc(Br)cc23)s1
[6]
  EC50: > 120 µM (not active)
[7]
  EC50: 6.9 µM (active)
[8]
  EC50: 9.75 µM (active)

## O=C(COC(=O)c1cc2ccccc2cc1O)NC1CCCCC1
[4]
  IC50: > 47.1 µM (inactive)
[5]
  EC50: > 53 µM (inactive)

## COc1ccc(CCNC(=O)c2cccc([N+](=O)[O-])c2)cc1OC
[1]
  EC50: 2.26 µM (active)

## CC(C)(C)OC(=O)N1CCN(c2ccc(CNC(=O)c3ccc(Cl)cc3)cc2)CC1
[4]
  IC50: > 47.1 µM (inactive)
[5]
  EC50: > 53 µM (inactive)

## COc1cc2ccccc2cc1C(=O)Nc1ccc(N2CCN(C)CC2)cc1
[9]
  EC50: > 120 µM (not active)

## Cc1ccn2c(NC3CCCCC3)c(C(C)C)nc2c1
[3]
  AC50: 2.82 µM (active)

## CCN(Cc1ccncc1)Cc1ccc(OC)c(OC)c1
[2]
  IC50: 190 µM (active)

## CCCOc1ccc(N2C(=O)CC(N3CCC(c4nc5ccccc5o4)CC3)C2=O)cc1 (stereo unspecified)
[6]
  EC50: > 120 µM (not active)
[7]
  EC50: > 120 µM (not active)
[8]
  EC50: > 60 µM (not active)

## COc1ccc(CNC(=O)CN(C)S(=O)(=O)c2ccc3c(c2)n(C)c(=O)c(=O)n3C)cc1
[4]
  IC50: > 47.1 µM (inactive)
[5]
  EC50: > 53 µM (inactive)

## COc1ccc(/C=C2\C(=O)ON=C2c2ccccc2)cc1
[3]
  AC50: 66.4 µM (active)

## Cc1ccc(-n2nc3c(=O)n(CCCC(=O)NCc4cccc(Cl)c4)nc(C)c3c2C)cc1
[10]
  CC50: 28.4 µM (active)
[6]
  EC50: 14.1 µM (active)
[7]
  EC50: 61.6 µM (active)
[8]
  EC50: 74.3 µM (active)

## [O-][n+]1onc2c3c4c(n(O)c3ccc21)CCCC4
[3]
  AC50: 0.497 µM (active)

## Cc1ccn2c(NC(C)(C)C)c(-c3cccs3)nc2c1
[3]
  AC50: 1.58 µM (active)

## COc1ccc(/C=N/NC(=O)c2cc[n+]([O-])cc2)cc1O
[2]
  IC50: 38.2 µM (active)

## CC(C(=O)NC(=O)NC1CCCCC1)N1CCN(c2ccc(O)cc2)CC1 (stereo unspecified)
[2]
  IC50: 55.5 µM (active)

## O=C(c1ccc(F)cc1)C1CCN(Cc2ccccc2F)CC1
[4]
  IC50: > 47.1 µM (inactive)
[5]
  EC50: > 53 µM (inactive)

## O=C(NNC(=O)c1oc2ccccc2c1-n1cccc1)c1ccco1
[4]
  IC50: > 47.1 µM (inactive)
[5]
  EC50: > 53 µM (inactive)

## Cc1cccc(N(C(=O)c2sc(C)nc2C)C(C(=O)NCC2CCCO2)c2ccccc2)c1 (stereo unspecified)
[4]
  IC50: > 47.1 µM (inactive)
[5]
  EC50: > 53 µM (inactive)

## Cc1sc2ncnc(N3CCC(C(=O)N(C)CC(=O)Nc4ccc(Cl)c(C(F)(F)F)c4)CC3)c2c1C
[6]
  EC50: 7.86 µM (active)
[7]
  EC50: 10.3 µM (active)
[8]
  EC50: 13 µM (active)
[11]
  AC50: 3.41 µM (active)
[12]
  EC50: 2.73 µM (active)
[13]
  EC50: > 60 µM (not active)

## CCN(CC)c1ccc(/C=N\NC(N)=O)cc1
[2]
  IC50: 50.7 µM (active)
[3]
  AC50: 0.825 µM (active)

## O=C(CN1CCN(c2ccc(O)cc2)CC1)Nc1ccc(S(=O)(=O)N2CCCC2)cc1
[3]
  AC50: 0.699 µM (active)

## Cc1oc2c(C)c3oc(=O)c(CCC(=O)N4C[C@H]5C[C@@H](C4)c4cccc(=O)n4C5)c(C)c3cc2c1C
[6]
  EC50: 65.1 µM (active)
[7]
  EC50: 13.5 µM (active)
[8]
  EC50: > 120 µM (not active)

## COc1ccc(CNC(=O)Nc2cccs2)cc1OC
[4]
  IC50: > 47.1 µM (inactive)
[5]
  EC50: > 53 µM (inactive)
[14]
  AC50: 39.8 µM (inconclusive)

## C=CCn1c(CNc2ccc(C)cc2)nnc1SCC(=O)N/N=C/c1ccc(O)cc1O
[2]
  IC50: 85.1 µM (active)
[11]
  AC50: 4.31 µM (active)

## CC(C)(C)NC(=O)COC(=O)c1ccccc1Nc1ccc(SC(F)F)cc1
[15]
  EC50: 23.9 µM (active)
[9]
  EC50: 12.8 µM (active)

## CCc1c(C)sc(NC(=O)CSc2nc3c(c(C(F)(F)F)n2)CCc2ccccc2-3)c1C#N
[6]
  EC50: > 120 µM (not active)
[7]
  EC50: 18.8 µM (active)
[8]
  EC50: > 120 µM (not active)

## O=C(C1CCCN(S(=O)(=O)c2c[nH]cn2)C1)N1CCN(c2ccc(Cl)cc2)CC1 (stereo unspecified)
[3]
  AC50: > 100 µM (inactive)

## COCCCNc1nc(S)nc2cc(OC)c(OC)cc12
[2]
  IC50: 69.7 µM (active)

## CC(=O)c1c(N2CCCCC2)nc(=S)n(Cc2ccccc2)c1C
[4]
  IC50: > 47.1 µM (inactive)
[5]
  EC50: > 53 µM (inactive)

## O=C(O)CCNC(=O)OCC1c2ccccc2-c2ccccc21
[4]
  IC50: > 47.1 µM (inactive)
[5]
  EC50: > 53 µM (inactive)

## COc1ccc(N(CC(=O)NCCc2ccc(OC)c(OC)c2)S(=O)(=O)c2c(C)noc2C)cc1
[4]
  IC50: > 47.1 µM (inactive)
[5]
  EC50: > 53 µM (inactive)

## Cc1cccc(Oc2ccc3c(c2)cc(C(=O)O)n3C)c1
[3]
  AC50: 0.211 µM (active)

## O=C1NC(=O)C(CCc2ccncc2)(Cc2cccc(Cl)c2Cl)C(=O)N1c1ccc(Br)cc1 (stereo unspecified)
[6]
  EC50: 13.2 µM (active)
[7]
  EC50: 13.9 µM (active)
[8]
  EC50: 18.9 µM (active)

## NNC(=O)c1ccc(O)cc1
[3]
  AC50: 4.28 µM (active)

## CN(C)c1ccc(CNC(=O)C2CCN(S(=O)(=O)c3ccc4c(c3)CCCC(=O)N4)CC2)cc1
[3]
  AC50: 5.99 µM (active)
